Read-outs that look alike come from different tables or passages of the source.
Experiments:
[1] = Octanol/water partition coefficient of radiolabeled gallium complexes; assay type: physicochemical; settings: octanol/tris buffer, pH 7
Procedure: Octanol/water partition coefficients were measured by vortex mixing 1 mL of 1-octanol and 1 mL of isotonic Tris buffer (pH 7.0) with a 1-5 μL sample of the radiolabeled gallium complex. Following centrifugation at >1200 g for 5 minutes, the octanol and aqueous phases were sampled and counted in an automatic well counter.

[2] = rat, i.v.
Procedure: The gallium-67 complexes are prepared by ligand exchange from gallium-67 chloride, employing the tris(acetylacetonato)gallium(III) complex as an intermediate. The Ga-67 acetylacetonate in ethanol is reacted with the chelating ligand or ligand precursor at elevated temperature to form rapidly the desired gallium radiopharmaceutical. […] The biodistribution of several radiopharmaceuticals was determined in rats following intravenous injection using techniques previously described (M. A. Green, Nuclear Medicine and Biology 14:59-61, 1987; E. John and M. A. Green, J. Medicinal Chemistry, 33:1764-1770, 1990).
Under ether anesthesia, 1 to 3 μCi (0.1-0.2 mL) of no-carrier-added Ga-67 compound was administered by bolus injection into the femoral vein of male Sprague-Dawley rats. The ether anesthetized rats were sacrificed by decapitation at given time intervals post-injection, organs of interest were removed, weighed, and the gallium-67 activity counted. The biodistribution was calculated as a percentage of the injected dose per gram of tissue and percentage of injected dose per organ for each sample.

For COc1cc([O-])c(C=NCCCNCCNCCCN=Cc2c([O-])cc(OC)cc2OC)c(OC)c1.[67Ga+3] [(4,6-MeO2 Sal)2 BAPEN], which “log P” value [1] is on record?
The value was 1.68.

And the “% Injected Dose per Gram Tissue, Blood” value ([2]; 1 min)?
The value was 0.66 ± 0.14 % Injected Dose per Gram Tissu.

And the “% Injected Dose per Gram Tissue, Brain” value ([2]; 1 min)?
Its value is 0.03 ± 0.01 % Injected Dose per Gram Tissu.

And the “% Injected Dose per Gram Tissue, Heart” value ([2]; 1 min)?
The value was 1.52 ± 0.24 % Injected Dose per Gram Tissu.

And the “% Injected Dose per Gram Tissue, Kidney (one)” value ([2]; 1 min)?
Its value is 6.40 ± 0.92 % Injected Dose per Gram Tissu.

And the “% Injected Dose per Gram Tissue, Liver” value ([2]; 1 min)?
Its value is 4.72 ± 0.82 % Injected Dose per Gram Tissu.

And the “% Injected Dose per Gram Tissue, Lungs” value ([2]; 1 min)?
The value was 0.81 ± 0.16 % Injected Dose per Gram Tissu.

What about the “% Injected Dose per Gram Tissue, Spleen” value ([2]; 1 min) of the same compound?
The value was 0.61 ± 0.09 % Injected Dose per Gram Tissu.

What about the “% injected dose in heart, 1 min” value ([2]; 1 min, preliminary studies) of the same compound?
Its value is 1.04 ± 0.12 % injected dose.

And the “% Injected Dose Per Gram of Tissue, Blood” value ([2]; 5 min)?
Its value is 0.11 ± 0.01 % Injected Dose Per Gram of Tissue.

What about the “% Injected Dose Per Gram of Tissue, Brain” value ([2]; 5 min) of the same compound?
The value was 0.01 ± 0.00 % Injected Dose Per Gram of Tissue.

And the “% Injected Dose Per Gram of Tissue, Heart” value ([2]; 5 min)?
The value was 1.45 ± 0.20 % Injected Dose Per Gram of Tissue.

What about the “% Injected Dose Per Gram of Tissue, Kidney (1)” value ([2]; 5 min) of the same compound?
The value was 6.10 ± 0.53 % Injected Dose Per Gram of Tissue.

What about the “% Injected Dose Per Gram of Tissue, Liver” value ([2]; 5 min) of the same compound?
Its value is 4.32 ± 0.53 % Injected Dose Per Gram of Tissue.

And the “% Injected Dose Per Gram of Tissue, Lungs” value ([2]; 5 min)?
Its value is 0.55 ± 0.05 % Injected Dose Per Gram of Tissue.

What about the “% Injected Dose Per Gram of Tissue, Spleen” value ([2]; 5 min) of the same compound?
Its value is 0.52 ± 0.15 % Injected Dose Per Gram of Tissue.

What about the “% Injected Dose per Gram Tissue, Blood” value ([2]; 15 min) of the same compound?
Its value is 0.07 ± 0.01 % Injected Dose per Gram Tissu.

And the “% Injected Dose per Gram Tissue, Brain” value ([2]; 15 min)?
The value was 0.01 ± 0.00 % Injected Dose per Gram Tissu.

And the “% Injected Dose per Gram Tissue, Heart” value ([2]; 15 min)?
The value was 1.22 ± 0.12 % Injected Dose per Gram Tissu.

What about the “% Injected Dose per Gram Tissue, Kidney (one)” value ([2]; 15 min) of the same compound?
The value was 4.22 ± 0.30 % Injected Dose per Gram Tissu.

What about the “% Injected Dose per Gram Tissue, Liver” value ([2]; 15 min) of the same compound?
Its value is 2.19 ± 0.21 % Injected Dose per Gram Tissu.

What about the “% Injected Dose per Gram Tissue, Lungs” value ([2]; 15 min) of the same compound?
The value was 0.42 ± 0.06 % Injected Dose per Gram Tissu.

And the “% Injected Dose per Gram Tissue, Spleen” value ([2]; 15 min)?
The value was 0.43 ± 0.06 % Injected Dose per Gram Tissu.

What about the “% Injected Dose per Gram Tissue, Blood” value ([2]; 120 min) of the same compound?
Its value is 0.03 ± 0.00 % Injected Dose per Gram Tissu.

And the “% Injected Dose per Gram Tissue, Brain” value ([2]; 120 min)?
The value was 0.01 ± 0.00 % Injected Dose per Gram Tissu.

And the “% Injected Dose per Gram Tissue, Heart” value ([2]; 120 min)?
The value was 1.37 ± 0.12 % Injected Dose per Gram Tissu.

What about the “% Injected Dose per Gram Tissue, Kidney (one)” value ([2]; 120 min) of the same compound?
Its value is 2.77 ± 0.24 % Injected Dose per Gram Tissu.

And the “% Injected Dose per Gram Tissue, Liver” value ([2]; 120 min)?
Its value is 0.33 ± 0.01 % Injected Dose per Gram Tissu.

What about the “% Injected Dose per Gram Tissue, Lungs” value ([2]; 120 min) of the same compound?
The value was 0.45 ± 0.11 % Injected Dose per Gram Tissu.

What about the “% Injected Dose per Gram Tissue, Spleen” value ([2]; 120 min) of the same compound?
The value was 0.37 ± 0.06 % Injected Dose per Gram Tissu.

What about the “% injected dose in heart, 2 h” value ([2]; 2 h, preliminary studies) of the same compound?
The value was 0.86 ± 0.11 % injected dose.

And the Heart/Blood ([2]; ratio, 1 min)?
Its Heart/Blood is 2.34 ± 0.36.

What about the Heart/Liver ([2]; ratio, 1 min) of the same compound?
The Heart/Liver was 0.32 ± 0.03.

What about the Heart/Lungs ([2]; ratio, 1 min) of the same compound?
The Heart/Lungs was 1.88 ± 0.18.

And the Heart/Blood ([2]; ratio, 5 min)?
The Heart/Blood was 13.28 ± 2.19.

And the Heart/Liver ([2]; ratio, 5 min)?
The Heart/Liver was 0.34 ± 0.04.

What about the Heart/Lung ([2]; ratio, 5 min) of the same compound?
The Heart/Lung was 2.64 ± 0.34.

What about the Heart/Blood ([2]; ratio, 15 min) of the same compound?
The Heart/Blood was 18.10 ± 0.91.

And the Heart/Liver ([2]; ratio, 15 min)?
Its Heart/Liver is 0.56 ± 0.10.

And the Heart/Lungs ([2]; ratio, 15 min)?
Its Heart/Lungs is 2.98 ± 0.53.

And the Heart/Blood ([2]; ratio, 120 min)?
Its Heart/Blood is 45.58 ± 3.96.

And the Heart/Liver ([2]; ratio, 120 min)?
Its Heart/Liver is 4.12 ± 0.44.

And the Heart/Lungs ([2]; ratio, 120 min)?
The Heart/Lungs was 3.27 ± 1.32.

From patent US5324502A, “Radiopharmaceuticals for imaging the heart” (priority 1992, dated 1994)
